# Results taken from PubChem BioAssay AID623929 (Vanderbilt Specialized Chemistry Center, 2012).
# pIC50: −log10 of the molar value.
# Molecular target: Metabotropic glutamate receptor 2 (Rattus norvegicus) (UniProt P31421)
# Experiment: PubChem AID 623929
# Settings: HEK293 GIRK rat mGlu2, thallium flux fluorescence
# Metabotropic glutamate receptor 2 (Rattus norvegicus), sequence (P31421 whole entry, looked up): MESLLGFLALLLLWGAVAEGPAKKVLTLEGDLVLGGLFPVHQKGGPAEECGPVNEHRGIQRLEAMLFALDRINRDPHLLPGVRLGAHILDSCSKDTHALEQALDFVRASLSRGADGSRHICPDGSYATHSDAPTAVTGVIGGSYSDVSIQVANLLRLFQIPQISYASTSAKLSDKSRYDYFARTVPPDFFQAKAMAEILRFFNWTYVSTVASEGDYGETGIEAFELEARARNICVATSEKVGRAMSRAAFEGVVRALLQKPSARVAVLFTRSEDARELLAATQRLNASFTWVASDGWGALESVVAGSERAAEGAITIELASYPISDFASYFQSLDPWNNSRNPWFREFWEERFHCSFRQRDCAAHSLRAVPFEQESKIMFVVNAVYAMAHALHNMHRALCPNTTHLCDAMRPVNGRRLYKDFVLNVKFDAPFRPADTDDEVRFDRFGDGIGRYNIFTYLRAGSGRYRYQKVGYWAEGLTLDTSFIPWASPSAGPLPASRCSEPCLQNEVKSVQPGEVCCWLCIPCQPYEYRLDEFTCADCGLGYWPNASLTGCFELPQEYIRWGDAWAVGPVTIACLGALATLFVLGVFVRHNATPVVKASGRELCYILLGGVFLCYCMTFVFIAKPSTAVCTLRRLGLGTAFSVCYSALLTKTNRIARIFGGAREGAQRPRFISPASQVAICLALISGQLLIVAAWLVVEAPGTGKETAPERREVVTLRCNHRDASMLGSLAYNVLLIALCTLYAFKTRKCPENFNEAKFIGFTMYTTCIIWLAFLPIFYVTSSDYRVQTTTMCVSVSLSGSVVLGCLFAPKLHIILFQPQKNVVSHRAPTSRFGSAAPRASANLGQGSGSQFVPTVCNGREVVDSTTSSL
row,SMILES,pIC50
1,COc1ccc(C#Cc2ccc(C(=O)N3CCC[C@H](CO)C3)cc2)cc1,5.00
2,COc1ccc(C#Cc2ccc(C(=O)N3CCCC(CO)C3)cc2)cc1 (stereo not drawn),5.00
3,COc1ccc(C#Cc2ccc(C(=O)N3CCC[C@@H](CO)C3)cc2)cc1,5.00
